# Reference: ChEMBL document CHEMBL3885861, “Open TG-GATES”
# Species: Rattus norvegicus
# Assay: Open TG-GATES - Regimen: Daily Repeat
# Format: toxicity, organism-based, Sprague-Dawley
# Design: regimen Daily Repeat, gender Male, age 6 weeks
# Conditions: in vivo, po, route gavage; for APTT / Bas / Eos / Fbg / Hb / Ht / Lym / MCH / MCHC / MCV / Mono / Neu / PT / Plat / RBC / Ret / WBC: tissue Blood; for ALP / ALT / AST / BUN / CRE / DBIL / GLC / IP / K / Na / PL / RALB / TBIL / TC / TG / TP / gamma-GTP: tissue Plasma
# [1] = 100 mg/kg, 72 h, dose level Middle, time 3 day
# [2] = 100 mg/kg, […], dose level Middle, time 7 day
# [3] = 100 mg/kg, […], dose level Middle, time 14 day
# [4] = 100 mg/kg, […], dose level Middle, time 28 day
# [5] = 300 mg/kg, 72 h, dose level High, time 3 day
# [6] = 300 mg/kg, […], dose level High, time 7 day
# [7] = 300 mg/kg, […], dose level High, time 14 day
# [8] = 300 mg/kg, […], dose level High, time 28 day
smiles,measurement,setting,value
NS(=O)(=O)c1cc(C(=O)O)c(NCc2ccco2)cc1Cl [FUROSEMIDE],TERMINAL_BW,[1],230.7 g
same,APTT,[1],16.9 s
same,Bas,[1],0%
same,Eos,[1],0.8%
same,Fbg,[1],296.8 mg/dL
same,Hb,[1],13.1 g/dL
same,Ht,[1],38.3%
same,Lym,[1],81.2%
same,MCH,[1],21.4 pg
same,MCHC,[1],34.1%
same,MCV,[1],62.7 fL
same,Mono,[1],2.2%
same,Neu,[1],14.8%
same,PT,[1],15 s
same,Plat,[1],123 x10_4/uL
same,RBC,[1],611.2 x10_4/ul
same,Ret,[1],4.2%
same,WBC,[1],107.2 x10_2/uL
same,ALP,[1],1617.4 IU/L
same,ALT,[1],47.4 IU/L
same,AST,[1],68.8 IU/L
same,BUN,[1],22.8 mg/dL
same,CRE,[1],0.2 mg/dL
same,DBIL,[1],0.014 mg/dL
same,GLC,[1],176.6 mg/dL
same,IP,[1],6.3 mg/dL
same,K,[1],3.6 meq/L
same,Na,[1],141.4 meq/L
same,PL,[1],174 mg/dL
same,RALB,[1],2.6 g/dL
same,TBIL,[1],0.054 mg/dL
same,TC,[1],90 mg/dL
same,TG,[1],65 mg/dL
same,TP,[1],5.6 g/dL
same,gamma-GTP,[1],0.4 IU/L
same,TERMINAL_BW,[2],247.4 g
same,TERMINAL_BW,[3],311 g
same,TERMINAL_BW,[4],380.8 g
same,APTT,[2],17.5 s
same,Bas,[2],0.4%
same,Eos,[2],1.2%
same,Fbg,[2],278 mg/dL
same,Hb,[2],14.1 g/dL
same,Ht,[2],40.4%
same,Lym,[2],82%
same,MCH,[2],20.8 pg
same,MCHC,[2],34.9%
same,MCV,[2],59.7 fL
same,Mono,[2],1.8%
same,Neu,[2],13.8%
same,PT,[2],16 s
same,Plat,[2],114.3 x10_4/uL
same,RBC,[2],678.6 x10_4/ul
same,Ret,[2],4.3%
same,WBC,[2],110.3 x10_2/uL
same,APTT,[3],16.7 s
same,Bas,[3],0.6%
same,Eos,[3],1%
same,Fbg,[3],253.8 mg/dL
same,Hb,[3],14.7 g/dL
same,Ht,[3],42.1%
same,Lym,[3],82.2%
same,MCH,[3],20.5 pg
same,MCHC,[3],34.9%
same,MCV,[3],58.6 fL
same,Mono,[3],2%
same,Neu,[3],13.2%
same,PT,[3],15.7 s
same,Plat,[3],108.7 x10_4/uL
same,RBC,[3],717.4 x10_4/ul
same,Ret,[3],3.8%
same,WBC,[3],124.3 x10_2/uL
same,APTT,[4],17.5 s
same,Bas,[4],1%
same,Eos,[4],1%
same,Fbg,[4],251.8 mg/dL
same,Hb,[4],14.7 g/dL
same,Ht,[4],42.7%
same,Lym,[4],80%
same,MCH,[4],19.2 pg
same,MCHC,[4],34.5%
same,MCV,[4],55.6 fL
same,Mono,[4],1.6%
same,Neu,[4],16.2%
same,PT,[4],15.7 s
same,Plat,[4],98.3 x10_4/uL
same,RBC,[4],769.2 x10_4/ul
same,Ret,[4],2.5%
same,WBC,[4],125.7 x10_2/uL
same,ALP,[2],1748.4 IU/L
same,ALT,[2],43.8 IU/L
same,AST,[2],73.4 IU/L
same,BUN,[2],17.8 mg/dL
same,CRE,[2],0.2 mg/dL
same,DBIL,[2],0.012 mg/dL
same,GLC,[2],179 mg/dL
same,IP,[2],6.2 mg/dL
same,K,[2],3.8 meq/L
same,Na,[2],142.4 meq/L
same,PL,[2],152 mg/dL
same,RALB,[2],2.6 g/dL
same,TBIL,[2],0.044 mg/dL
same,TC,[2],71.4 mg/dL
same,TG,[2],84.4 mg/dL
same,TP,[2],5.7 g/dL
same,gamma-GTP,[2],0.2 IU/L
same,ALP,[3],1743.4 IU/L
same,ALT,[3],44.2 IU/L
same,AST,[3],78.6 IU/L
same,BUN,[3],24.6 mg/dL
same,CRE,[3],0.2 mg/dL
same,DBIL,[3],0.016 mg/dL
same,GLC,[3],177 mg/dL
same,IP,[3],6.5 mg/dL
same,K,[3],3.7 meq/L
same,Na,[3],143.8 meq/L
same,PL,[3],160.6 mg/dL
same,RALB,[3],2.6 g/dL
same,TBIL,[3],0.048 mg/dL
same,TC,[3],78.4 mg/dL
same,TG,[3],107.6 mg/dL
same,TP,[3],5.7 g/dL
same,gamma-GTP,[3],0.6 IU/L
same,ALP,[4],1073.6 IU/L
same,ALT,[4],42.8 IU/L
same,AST,[4],70.4 IU/L
same,BUN,[4],24 mg/dL
same,CRE,[4],0.2 mg/dL
same,DBIL,[4],0.02 mg/dL
same,GLC,[4],178.2 mg/dL
same,IP,[4],5.7 mg/dL
same,K,[4],3.7 meq/L
same,Na,[4],144.8 meq/L
same,PL,[4],143.4 mg/dL
same,RALB,[4],2.6 g/dL
same,TBIL,[4],0.052 mg/dL
same,TC,[4],66 mg/dL
same,TG,[4],109.2 mg/dL
same,TP,[4],6 g/dL
same,gamma-GTP,[4],0.4 IU/L
same,TERMINAL_BW,[5],189.1 g
same,APTT,[5],20.9 s
same,Bas,[5],0.4%
same,Eos,[5],0.8%
same,Fbg,[5],315.2 mg/dL
same,Hb,[5],16.5 g/dL
same,Ht,[5],47%
same,Lym,[5],80%
same,MCH,[5],20.8 pg
same,MCHC,[5],35.1%
same,MCV,[5],59.3 fL
same,Mono,[5],2.6%
same,Neu,[5],15.8%
same,PT,[5],15.6 s
same,Plat,[5],124.2 x10_4/uL
same,RBC,[5],794 x10_4/ul
same,Ret,[5],2%
same,WBC,[5],116.4 x10_2/uL
same,ALP,[5],1596.8 IU/L
same,ALT,[5],46.2 IU/L
same,AST,[5],67.4 IU/L
same,BUN,[5],41.8 mg/dL
same,CRE,[5],0.2 mg/dL
same,DBIL,[5],0.02 mg/dL
same,GLC,[5],164.6 mg/dL
same,IP,[5],5.7 mg/dL
same,K,[5],3 meq/L
same,Na,[5],136.4 meq/L
same,PL,[5],169.6 mg/dL
same,RALB,[5],2.9 g/dL
same,TBIL,[5],0.082 mg/dL
same,TC,[5],90.2 mg/dL
same,TG,[5],48.4 mg/dL
same,TP,[5],6.2 g/dL
same,gamma-GTP,[5],1.2 IU/L
same,TERMINAL_BW,[6],216.8 g
same,TERMINAL_BW,[7],243.1 g
same,TERMINAL_BW,[8],317.2 g
same,APTT,[6],16.2 s
same,Bas,[6],0.4%
same,Eos,[6],1%
same,Fbg,[6],291 mg/dL
same,Hb,[6],15 g/dL
same,Ht,[6],42.7%
same,Lym,[6],81.6%
same,MCH,[6],20.8 pg
same,MCHC,[6],35.2%
same,MCV,[6],59.3 fL
same,Mono,[6],2.2%
same,Neu,[6],14.4%
same,PT,[6],16.2 s
same,Plat,[6],97.2 x10_4/uL
same,RBC,[6],720.2 x10_4/ul
same,Ret,[6],2.4%
same,WBC,[6],121.9 x10_2/uL
same,APTT,[7],17 s
same,Bas,[7],0.5%
same,Eos,[7],1%
same,Fbg,[7],309.5 mg/dL
same,Hb,[7],15.3 g/dL
same,Ht,[7],43.5%
same,Lym,[7],80%
same,MCH,[7],19.9 pg
same,MCHC,[7],35.2%
same,MCV,[7],56.5 fL
same,Mono,[7],2%
same,Neu,[7],15.5%
same,PT,[7],15.9 s
same,Plat,[7],102.8 x10_4/uL
same,RBC,[7],769.5 x10_4/ul
same,Ret,[7],3.6%
same,WBC,[7],113 x10_2/uL
same,APTT,[8],16 s
same,Bas,[8],1%
same,Eos,[8],1.2%
same,Fbg,[8],265.8 mg/dL
same,Hb,[8],15.6 g/dL
same,Ht,[8],45.6%
same,Lym,[8],80.8%
same,MCH,[8],19.3 pg
same,MCHC,[8],34.3%
same,MCV,[8],56.5 fL
same,Mono,[8],2%
same,Neu,[8],15.2%
same,PT,[8],16 s
same,Plat,[8],91 x10_4/uL
same,RBC,[8],806.5 x10_4/ul
same,Ret,[8],2%
same,WBC,[8],106.7 x10_2/uL
same,ALP,[6],1629.6 IU/L
same,ALT,[6],50.2 IU/L
same,AST,[6],71 IU/L
same,BUN,[6],27 mg/dL
same,CRE,[6],0.2 mg/dL
same,DBIL,[6],0.018 mg/dL
same,GLC,[6],169.8 mg/dL
same,IP,[6],4.9 mg/dL
same,K,[6],3.5 meq/L
same,Na,[6],141.8 meq/L
same,PL,[6],164.8 mg/dL
same,RALB,[6],2.7 g/dL
same,TBIL,[6],0.062 mg/dL
same,TC,[6],80.6 mg/dL
same,TG,[6],67 mg/dL
same,TP,[6],5.9 g/dL
same,gamma-GTP,[6],0.4 IU/L
same,ALP,[7],1713 IU/L
same,ALT,[7],48.2 IU/L
same,AST,[7],79 IU/L
same,BUN,[7],28.8 mg/dL
same,CRE,[7],0.2 mg/dL
same,DBIL,[7],0.0175 mg/dL
same,GLC,[7],174 mg/dL
same,IP,[7],5.5 mg/dL
same,K,[7],3.4 meq/L
same,Na,[7],142.8 meq/L
same,PL,[7],171.8 mg/dL
same,RALB,[7],2.7 g/dL
same,TBIL,[7],0.0575 mg/dL
same,TC,[7],83 mg/dL
same,TG,[7],84.2 mg/dL
same,TP,[7],5.9 g/dL
same,gamma-GTP,[7],0.5 IU/L
same,ALP,[8],1444.8 IU/L
same,ALT,[8],44.2 IU/L
same,AST,[8],72.2 IU/L
same,BUN,[8],30.8 mg/dL
same,CRE,[8],0.2 mg/dL
same,DBIL,[8],0.0175 mg/dL
same,GLC,[8],174.8 mg/dL
same,IP,[8],5.1 mg/dL
same,K,[8],3.5 meq/L
same,Na,[8],144.5 meq/L
same,PL,[8],150.2 mg/dL
same,RALB,[8],2.7 g/dL
same,TBIL,[8],0.055 mg/dL
same,TC,[8],69.8 mg/dL
same,TG,[8],92.2 mg/dL
same,TP,[8],6 g/dL
same,gamma-GTP,[8],0.5 IU/L
